Reference: patent publication US12576137B2, “Collagen hydrolysate comprising GPCR ligand peptide” (Industry-Academic Cooperation Foundation, Yonsei University, priority 2021, dated 2026)

Experiments:
Caco-2 cells = assay: Wound healing (scratch) assay; assay type: cell-based, human; settings: pre-incubated with 0.1 μM CID 2745687
ERK1/2 signaling pathway = settings: pre-treated with 0.1 μM CID 2745687 for 1 hour

human epidermal growth factor [EGF, a well-known wound therapeutic agent, positive control]
wound-healing activity after GPR35 inhibition (Caco-2 cells): not inhibited

CCCOc1ccccc1-c1nc2nn[nH]c2c(=O)[nH]1 [zaprinast]
wound-healing activity after GPR35 inhibition (Caco-2 cells): abolished
ERK1/2 phosphorylation increase when treated with CID 2745687 (ERK1/2 signaling pathway): reversed
